Structures are written as SMILES.

The text below walks through data of patent US20150166523A1, “BRANCHED CHAIN ALKYL HETEROAROMATIC RING DERIVATIVE” (TAISHO PHARMACEUTICAL CO., LTD., priority 2012, published 2015).

The target of assay [1] is T1, orexin-2 receptor (hOX2R) (Homo sapiens, UniProt O43614).
T1 construct: expressed in transfected cells; host or cells: Chinese hamster ovary (CHO) cells
T1 sequence (O43614 1-444): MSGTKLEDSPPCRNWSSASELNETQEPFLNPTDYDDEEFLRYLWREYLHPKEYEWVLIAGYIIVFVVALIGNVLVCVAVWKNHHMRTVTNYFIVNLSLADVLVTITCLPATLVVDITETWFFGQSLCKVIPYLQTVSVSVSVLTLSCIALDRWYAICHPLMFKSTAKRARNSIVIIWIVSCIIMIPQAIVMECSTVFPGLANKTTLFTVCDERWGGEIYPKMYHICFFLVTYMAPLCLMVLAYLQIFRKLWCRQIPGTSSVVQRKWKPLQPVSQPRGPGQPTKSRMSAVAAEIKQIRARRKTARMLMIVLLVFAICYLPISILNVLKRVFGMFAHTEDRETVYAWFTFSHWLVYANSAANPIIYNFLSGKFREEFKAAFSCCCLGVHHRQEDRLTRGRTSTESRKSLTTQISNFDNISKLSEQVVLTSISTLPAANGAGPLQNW
As to the kind of experiment: Measurement of orexin antagonistic activity (intracellular Ca2+ fluorescence, FDSS) on hOX2R. The class given is cell-based. Particulars: CHO cells forcibly expressing hOX2R; Fluo-4AM; ligand peptide (substituted human orexin-A) 3 nM; compound preincubated 30 minutes; read-out: IC50 Value OX2. The procedure:
(§1) The antagonistic activities of the test compounds on human orexin-1 receptor (hOX1R) and orexin-2 receptor (hOX2R) were measured by modifying from the method described in literature (Toshikatsu Okumura et al., Biochemical and Biophysical Research Communications, 280, 976-981, 2001). Chinese hamster ovary (CHO) cells forcibly expressing the hOX1R and hOX2R were seeded into a 96 well Black clear bottom plate (Nunc) at 20,000 cells per well, which were cultured in Ham's F-12 medium containing 0.1 mM MEM non-essential amino acids, 0.5 mg/mL G418, 10% fetal bovine serum (all by Invitrogen) for 16 hours under the conditions of 37° C., 5% CO2. After removing the medium, 100 μL of 0.5 μM Fluo-4AM ester (Dojin) in an assay buffer (25 mM HEPES (Dojin), Hank's balanced salt solution (Invitrogen), 0.1% bovine serum albumin, 2.5 mM probenecid, 200 μg/mL Amaranth (all by Sigma-Aldrich), pH 7.4) was added and the cells were incubated for 60 minutes at 37° C., 5% CO2. After removing the assay buffer containing fluo-4AM ester, the test compound was dissolved in dimethyl sulfoxide to be 10 mM and diluted with the assay buffer, 150 μL, of which was added and incubated for 30 minutes.
(§2) The reaction was measured for the fluorescence intensity of each well every second for 3 minutes using Functional Drug Screening System (FDSS; Hamamatsu Photonics K.K.), and the antagonistic activity was determined using the maximum fluorescence intensity as the indicator of intracellular Ca2+ concentration.

The target of assay [2] is T2, human orexin-1 receptor (hOX1R) (Homo sapiens, UniProt O43613).
T2 construct: expressed in transfected cells; host or cells: Chinese hamster ovary (CHO) cells
T2 sequence (O43613 1-425): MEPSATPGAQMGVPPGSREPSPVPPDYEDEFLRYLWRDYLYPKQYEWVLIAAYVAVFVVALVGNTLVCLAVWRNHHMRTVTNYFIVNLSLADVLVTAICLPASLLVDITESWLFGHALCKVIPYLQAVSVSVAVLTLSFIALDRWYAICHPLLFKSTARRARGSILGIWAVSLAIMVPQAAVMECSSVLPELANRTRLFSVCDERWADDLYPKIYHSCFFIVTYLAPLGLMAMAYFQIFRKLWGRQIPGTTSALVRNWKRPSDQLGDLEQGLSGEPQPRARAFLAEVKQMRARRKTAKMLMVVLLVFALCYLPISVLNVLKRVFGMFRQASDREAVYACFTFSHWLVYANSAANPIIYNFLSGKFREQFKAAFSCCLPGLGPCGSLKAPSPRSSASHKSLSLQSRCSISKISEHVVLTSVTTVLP
Briefly: Measurement of orexin antagonistic activity (intracellular Ca2+ fluorescence, FDSS) on hOX1R. The class given is cell-based. As to conditions: CHO cells forcibly expressing hOX1R; Fluo-4AM; ligand peptide (substituted human orexin-A) 300 pM; compound preincubated 30 minutes; read-out: IC50 Value OX1. The procedure:
as §1, §2

Consider `Cc1ccc(-n2nccn2)c(C(=O)N(C)[C@@H](C)Cn2cc(-c3ccc(F)c(F)c3)cn2)n1` [Example 29, N-{(2S)-1-[4-(3,4-Difluorophenyl)-1H-pyrazol-1-yl]propan-2-yl}-N,6-dimethyl-3-(2H-1,2,3-triazol-2-yl)pyridine-2-carboxamide], for which the IC50 in assay [1] turned out to be 25.6 nM; in assay [2] it was 10.1 nM.

Turning to `CCN(C(=O)c1cc(F)ccc1-n1nccn1)[C@@H](C)Cn1cc(-c2ccc(F)cn2)cn1` [Example 36, N-Ethyl-5-fluoro-N-{(2S)-1-[4-(5-fluoropyridin-2-yl)-1H-pyrazol-1-yl]propan-2-yl}-2-(2H-1,2,3-triazol-2-yl) benzamide], the IC50 amounted to 214 nM in assay [1] and 6.8 nM in assay [2].

Turning to `C[C@@H](Cn1ccc(-c2ccc(F)cn2)n1)N(C)C(=O)c1cc(F)ccc1-c1ncccn1` [Example 5, 5-Fluoro-N-{(2S)-1-[3-(5-fluoropyridin-2-yl)-1H-pyrazol-1-yl]propan-2-yl}-N-methyl-2-(pyrimidin-2-yl)benzamide], in assay [1], the IC50 is 75.5 nM.

Take `Cc1ccc(-c2ncccn2)c(C(=O)N(C)[C@@H](C)Cc2noc(-c3ccc(F)cn3)n2)c1` [Example 46, N-{(2S)-1-[5-(5-Fluoropyridin-2-yl)-1,2,4-oxadiazol-3-yl]propan-2-yl}-N,5-dimethyl-2-(pyrimidin-2-yl)benzamide]: in assay [2], the IC50 came out at 21.6 nM.

In the case of `CCN(C(=O)c1cc(C)ccc1-n1nccn1)[C@@H](C)Cn1cc(-c2ccc(OC)cc2)nn1` [Example 96, N-Ethyl-N-{(2S)-1-[4-(4-methoxyphenyl)-1H-1,2,3-triazol-1-yl]propan-2-yl}-5-methyl-2-(2H-1,2,3-triazol-2-yl)benzamide], the IC50 in assay [1] came to 8370 nM; in assay [2], 160 nM.

Turning to `CCN(C(=O)c1cc(C)ccc1-n1nccn1)[C@@H](C)Cn1cc(-c2ccc(F)cc2)nn1` [Example 71, N-Ethyl-N-{(2S)-1-[4-(4-fluorophenyl)-1H-1,2,3-triazol-1-yl]propan-2-yl}-5-methyl-2-(2H-1,2,3-triazol-2-yl)benzamide], the IC50 in assay [1] is 21.8 nM; in assay [2], 1.3 nM.

For the compound `Cc1ccc(-c2ncccn2)c(C(=O)N(C)[C@@H](C)Cc2noc(-c3ccc(F)cc3)n2)c1` [Example 60, N-{(2S)-1-[5-(4-Fluorophenyl)-1,2,4-oxadiazol-3-yl]propan-2-yl}-N,5-dimethyl-2-(pyrimidin-2-yl)benzamide], the values for the IC50 in assay [1] and in assay [2] were 45 nM and 1.3 nM, respectively.

For `CCN(C(=O)c1cc(F)ccc1-c1ncccn1)[C@@H](C)Cn1cc(-c2ccc(F)cc2)cn1` [Example 30, N-Ethyl-5-fluoro-N-{(2S)-1-[4-(4-fluorophenyl)-1H-pyrazol-1-yl]propan-2-yl}-2-(pyrimidin-2-yl)benzamide], the values for the IC50 in assay [1] and in assay [2] were 35.7 nM and 1.2 nM, respectively.

Take `CCN(C(=O)c1cc(C)ccc1-n1nccn1)C(C)Cc1ccn(-c2ccc(F)cn2)n1` (stereo not shown) [Example 75, N-Ethyl-N-{1-[1-(5-fluoropyridin-2-yl)-1H-pyrazol-3-yl]propan-2-yl}-5-methyl-2-(2H-1,2,3-triazol-2-yl) benzamide]: the IC50 was 1.7 nM in assay [1] and 1.4 nM in assay [2].

In the case of `CCN(C(=O)c1nc(C)ccc1-c1ncccn1)[C@@H](C)Cn1cc(-c2ccc(F)cn2)nn1` [Example 80, N-Ethyl-N-{(2S)-1-[4-(5-fluoropyridin-2-yl)-1H-1,2,3-triazol-1-yl]propan-2-yl}-6-methyl-3-(pyrimidin-2-yl)pyridine-2-carboxamide], the results for the IC50 in assay [1] and in assay [2] were 7810 nM and 687 nM, respectively.

Regarding `Cc1ccc(-n2nccn2)c(C(=O)N(CCO)[C@@H](C)Cn2cc(-c3ccc(F)cc3)nn2)c1` [Example 73, N-{(2S)-1-[4-(4-Fluorophenyl)-1H-1,2,3-triazol-1-yl]propan-2-yl}-N-(2-hydroxyethyl)-5-methyl-2-(2H-1,2,3-triazol-2-yl)benzamide], the IC50 in assay [1] worked out at 5.7 nM; in assay [2], 80.3 nM.

Consider `CCN(C(=O)c1cc(C)ccc1-n1nccn1)[C@@H](C)Cn1nnc(-c2ccc(F)cc2)n1` [Example 62, N-Ethyl-N-{(2S)-1-[5-(4-fluorophenyl)-2H-tetrazol-2-yl]propan-2-yl}-5-methyl-2-(2H-1,2,3-triazol-2-yl)benzamide], for which the results for the IC50 in assay [1] and in assay [2] were 2.3 nM and 0.7 nM, respectively.

Regarding `CCN(C(=O)c1cc(C)ccc1-c1ncccn1)[C@@H](C)Cc1noc(-c2ccc(F)cn2)n1` [Example 48, N-Ethyl-N-{(2S)-1-[5-(5-fluoropyridin-2-yl)-1,2,4-oxadiazol-3-yl]propan-2-yl}-5-methyl-2-(pyrimidin-2-yl)benzamide], the IC50 in assay [1] is 28.2 nM; in assay [2], 0.9 nM.

Turning to `CCN(C(=O)c1ccccc1-c1ncccn1)[C@@H](C)Cn1ccc(-c2ccc(F)cn2)n1` [Example 7, N-Ethyl-N-{(2S)-1-[3-(5-fluoropyridin-2-yl)-1H-pyrazol-1-yl]propan-2-yl}-2-(pyrirnidin-2-yl) benzamide], the values for the IC50 in assay [1] and in assay [2] were 43.1 nM and 6.8 nM, respectively.

`CCN(C(=O)c1cc(F)ccc1-c1ncccn1)[C@@H](C)Cn1ccc(-c2ccc(F)cc2)n1` [Example 11, N-Ethyl-5-fluoro-N-[(2S)-1-[3-(4-fluorophenyl)-1H-pyrazol-1-yl]propan-2-yl}-2-(pyrimidin-2-yl) benzamide]: the IC50 in assay [1] worked out at 14.4 nM; in assay [2] it was 0.2 nM.

For `CCN(C(=O)c1cc(F)ccc1-c1ncccn1)[C@@H](C)Cn1cc(-c2ccc(F)c(F)c2)cn1` [Example 31, N-{(2S)-1-[4-(3,4-Difluorophenyl)-1H-pyrazol-1-yl]propan-2-yl}-N-ethyl-5-fluoro-2-(pyrimidin-2-yl)benzamide], the IC50 in assay [1] amounted to 10.2 nM; in assay [2], 1 nM.

Consider `CCN(C(=O)c1nc(C)ccc1-n1nccn1)[C@@H](C)Cn1cc(-c2ccc(F)cc2)nn1` [Example 83, N-Ethyl-N-{(2S)-1-[4-(4-fluorophenyl)-1H-1,2,3-triazol-1-yl]propan-2-yl}-6-methyl-3-(2H-1,2,3-triazol-2-yl)pyridine-2-carboxamide], for which the IC50 in assay [1] came out at 308 nM; in assay [2], 9.9 nM.

For `CCN(C(=O)c1cc(C)ccc1-c1ncccn1)[C@@H](C)Cn1nnc(-c2ccc(F)cn2)n1` [Example 88, N-Ethyl-N-{(2S)-1-[5-(5-fluoropyridin-2-yl)-2H-tetrazol-2-yl]propan-2-yl}-5-methyl-2-(pyrimidin-2-yl)benzamide], the IC50 stood at 41.2 nM in assay [1] and 13.4 nM in assay [2].

In the case of `C[C@@H](Cn1ccc(-c2ccc(F)cn2)n1)N(C)C(=O)c1ccccc1-n1nccn1` [Example 20, N-{(2S)-1-[3-(5-Fluoropyridin-2-yl)-1H-pyrazol-1-yl]propan-2-yl}-N-methyl-2-(2H-1,2,3-triazol-2-yl)benzamide], the IC50 was found to be 55.9 nM in assay [1] and 3.4 nM in assay [2].

`CCN(C(=O)c1cc(C)ccc1-n1nccn1)[C@@H](C)Cn1cc(-c2ccc(F)cn2)nn1` [Example 82, N-Ethyl-N-{(2S)-1-[4-(5-fluoropyridin-2-yl)-1H-1,2,3-triazol-1-yl]propan-2-yl}-5-methyl-2-(2H-1,2,3-triazol-2-yl)benzamide]: the figures for the IC50 in assay [1] and in assay [2] were 13.3 nM and 2.2 nM, respectively.

As to `CCN(C(=O)c1c(F)cccc1-c1ncccn1)[C@@H](C)Cn1ccc(-c2ccc(F)cc2)n1` [Example 13, N-Ethyl-2-fluoro-N-[(2S)-1-[3-(4-fluorophenyl)-1H-pyrazol-1-yl]propan-2-yl)-6-(pyrimidin-2-yl)benzamide], the IC50 in assay [1] is 53.9 nM; in assay [2], 1.9 nM.

The term IC50 denotes the concentration that inhibits the measured activity by half.
